Source: patent US10022397B2, “Treatment of rheumatoid arthritis using noble gas mixtures” (Nobilis Therapeutics, Inc., priority 2016, dated 2018)

Tested on: patients with disease modifying antirheumatic drug (DMARD)-resistant Rheumatoid Arthritis (RA)
Method: 20 patients with disease modifying antirheumatic drug (DMARD)-resistant Rheumatoid Arthritis (RA) are chosen for a clinical trial assessing safety and efficacy of 25% Xenon administration with 75% air. A total of 10 liters of gas inhaled. Administration is performed 3 times per week.
Safety is determined by assessment of hematological biochemical, and coagulation parameters on baseline, and days 30, 60, and 90. Efficacy is assessed by CRP, ESR, anti-citrulline antibody, RF, Quality of Life Questionnaire, 28-joint disease activity score (DAS28), European League against Rheumatism (EULAR) response criteria and immunological parameters. […]
Safety will be assessed throughout the study with the use of direct evaluation and patient reporting during study visits or patient-initiated telephone contacts. The types, frequencies, severity, and duration of any reported adverse event or abnormalities in clinical laboratory values, physical examinations, vital signs, or special cardiovascular evaluations will be assessed. […]
To assess preliminary evidence of efficacy, the following assessments will be analyzed at following time points and compared to baseline values: […]
Quality of Life Assessment at 1, 2, and 3 Months Measured by: • Change in Rheumatoid Arthritis Quality of Life (RAQoL) questionnaire

[Xe] [Xenon, xenon]
clinical and immunological parameters of RA (25% Xenon with 75% air, 10 liters inhaled, 3 times per week, DAS28, EULAR, RF, ESR, CRP, anti-citrulline antibody, RAQoL at 1, 2 and 3 months vs baseline): reduction of clinical and immunological parameters of RA is noted in a statistically significant manner
treatment associated adverse events (human, in vivo): no significant treatment associated adverse events
